Reference: US9011817B2, “Compounds and methods of making compounds” (The Board of Trustees of the Leland Stanford Junior …, priority 2009, dated 2015)

Experiments:
CCRF-CEM cells [1] = assay: Competition of cold 2F-AraG with 8-[3H]-AraG uptake in CCRF-CEM cells; type: cell-based; details: increasing amount of 2F-AraG 1-100 μM, 60 or 120 minutes
Protocol: FIG. 2.3a illustrates a graph of 5×10^5 CCRF-CEM cells were incubated, in triplicate, with 1 uCi 8H^3-AraG (1 mCi/ml) and increasing amounts of cold 2F-AraG or DMSO for either 60 or 120 minutes. Percent of control uptake was calculated as: measured cpm of sample/cpm accumulated 1 uCi 8[H^3]-AraG control×100.
We have successfully synthesized a novel ^18F derivative of 2-deoxyguanosine analog, 9-β-D-arabinofuranosylguanine (18F-AraG), to use as a molecular probe (FIG. 2.1). [^18F]AraG cell uptake was evaluated in leukemia cell line, CCRF-CEM, and was compared with [^3H]Arag cell uptake. […] To determine whether cold derivative 2F-AraG competes with the uptake of 8-[^3H]-AraG, we studied the [^3H]-Arag uptakes by CCRF-CEM, MOLT-4 (Leukemia cell line) and Raji (human Burkitt's lymphoma cell line) and competition with cold 2F-AraG (FIGS. 2.3a and 2.3b). […] Competition assays indicate that cold derivative 2F-Arag competes with the uptake of the 8-[^3H]-AraG, indicating similar uptake pathways.

[2] = cited from earlier work
CCRF-CEM cells [3] = assay: [18F]F-AraG cell uptake in CCRF-CEM cells (gamma counter); type: cell-based; details: for fold more [18F]F-AraG uptake at 10 μCi as compared to 3 μCi: 5×10^5 CCRF-CEM cells
Protocol: FIG. 2.2 illustrates a graph of 5×10^5 CCRF-CEM cells were labeled with ^18F-AraG (0.6 mCi/ml) for indicated times and doses. Uptake was measured on gamma counter. Bars represent mean of triplicate determinations+/−SEM.
Cells took up ˜2-fold more [^18F]F-AraG when exposed to 10 μCi, at 60 minutes (p=0.008) and at 120 minutes (p=0.001) as compared to 3 μCi. Error bars represent S.E.M.
(§1) CCRF-CEM (acute lymphoblastic T leukemia cell line procured form ATCC) cells were maintained in RPMI 1640 (Cellgro) supplemented with 100 U penicillin/100 ug streptomycin/ml (Cellgro) and 10% fetal bovine serum (Gibco). 5×10^5 CCRF-CEM cells were plated in 12 well dishes. Cells were allowed to settle for one hour then [^18F]F-AraG was added to each well and incubated at 37° C. for indicated times. Primary T cells were isolated from spleens and thymus of out-bred mice. Briefly, tissues were minced and single cell suspensions made in RPMI supplemented as above. Cells were centrifuged at 300×g for 8 minutes at 4° C. and cell pellets were resuspended in phosphate buffered saline (PBS) supplemented with 0.5% bovine serum albumin (BSA). T cells were purified from the suspensions using Miltenyi Pan T antibodies and columns (Miltenyi Biotec) per manufacturer's directions. Purified T cells were either stimulated with 100 U/ml IL-2 (eBiosciences) for 24 or 48 hours, or 50 nM phorbol myristate acetate (PMA) (Fluka) with 1 μg/mL ionomycin (Sigma) for 48 hours or left unstimulated then exposed to 1 μCi of [^18F]F-AraG/10^6 cells for 60 minutes. All cells were then washed in 1×PBS, lysed and radioactivity of each well was determined by gamma counter for [^18F] samples. All results were done in triplicate and are expressed in counts per minute (CPM), standard errors were determined and student T tests performed.

primary T cells = assay: [18F]F-AraG uptake in purified primary T cells, stimulated or un-stimulated; type: cell-based, mouse; details: for fold more uptake than un-stimulated primary T cells: 1 μCi, 60 minutes
Protocol: Error bars represent mean of triplicate determinations+/−SEM., n=4 p=0.14 and 0.003 by two tailed, paired Student T test respectively.
as §1

[4] = micro PET scans in normal nude mice; type: in vivo; details: initial scans

## Nc1nc2c(ncn2[C@@H]2O[C@H](CO)[C@@H](O)[C@@H]2F)c(=O)[nH]1 [2F-AraG, 2′-Deoxy-2′-fluoro-9-β-D-arabinofuranosylguanine]
CCRF-CEM cells [1]
  effect on [3H]-AraG uptake: decrease of the [^3H]-AraG uptake

## Nc1nc2c(ncn2[C@@H]2O[C@H](CO)[C@@H](O)[C@@H]2O)c(=O)[nH]1 [AraG, 9-β-D-arabinofuranosylguanine]
[2]
  therapeutic serum levels at which neurotoxic side effects are induced in some patients: ~150 µM

## Nc1nc2c(ncn2[C@@H]2O[C@H](CO)[C@@H](O)[C@@H]2[18F])c(=O)[nH]1 [[^18F]F-AraG, 2′-Deoxy-2′-[^18F]fluoro-9-β-D-arabinofuranosylguanine]
CCRF-CEM cells [3]; 60 minutes, p=0.008
  fold more [18F]F-AraG uptake at 10 μCi as compared to 3 μCi: ~2 fold
CCRF-CEM cells [3]; 120 minutes, p=0.001
  fold more [18F]F-AraG uptake at 10 μCi as compared to 3 μCi: ~2 fold
CCRF-CEM cells [3]; CCRF-CEM cells
  dose dependence of uptake: dose dependent
CCRF-CEM cells [3]; CCRF-CEM cells, 60 or 120 minutes
  time course of uptake: majority of the [^18F]F-AraG is taken up by cells within the first hour
CCRF-CEM cells [3]; CCRF-CEM leukemia cell line, unactivated
  cell uptake (qualitative): take up
CCRF-CEM cells [3]; unactivated CCRF-CEM cells, time not stated
  fold increase in [18F]F-AraG uptake, cells exposed to 10 μCi compared to 3 μCi: 2 fold
Primary T cells; activated primary thymocytes / primary T cells
  cell uptake (qualitative): take up [^18F]F-AraG to an appreciable level
Primary T cells; stimulated with 50 nM PMA and 1 μg/mL ionomycin, p=0.003
  fold more uptake than un-stimulated primary T cells: 4.7 fold
Primary T cells; stimulated with 100 U/mL interleukin 2, p=0.14
  fold more uptake than un-stimulated primary T cells: 1.4 fold
[4]
  tissue uptake in micro PET: taken up within the thymus and lymph nodes
